Earlier results on two molecules are cited in patent publication US20030230530A1, “Process for the preparation of a combination of Famotidine Polymorphs A and B” (M/S. TONIRA PHARMA LIMITED, priority 2002, published 2003).

For data set [1] the following is noted: background statement, comparison of Polymorph A and B.
The conditions of data set [2]: background statement, comparison of Polymorph A and B. This is another data set of the same source.

Turning to `N=C(N)Nc1nc(CSCCC(=N)NS(N)(=O)=O)cs1` [Polymorph B, N-Sulfamyl-3-(2-guanidinothiazole-4-yl-methylthio) proionamidine], the “stability of the polymorph” value in data set [1] is recorded as “metastable”. Moreover, the dissolution properties entry in data set [2] is on record as “higher dissolution properties”.
On to `N=C(N)Nc1nc(CSCCC(=N)NS(N)(=O)=O)cs1` [Polymorph A, N-Sulfamyl-3-(2-guanidinothiazole-4-yl-methylthio) proionamidine], for which, in data set [1], the “stability of the polymorph” value is “more stable”. In data set [2], the dissolution properties entry was “low dissolution properties”.
